Reference: patent US9951055B2, “Thiazole-based inhibitors of scavenger receptor BI” (THE BROAD INSTITUTE, INC., priority 2012, dated 2018)
pIC50: −log10 of the molar value. Like-named read-outs stand apart in the source and are kept apart here.

How the values were obtained:
murine SR-BI = molecular target: T1, murine SR-BI (Mus musculus, UniProt Q61009); assay: DiI-HDL uptake assay with extended washout; assay type: cell-based; settings: after a 4-hour washout period
T1 construct: expressed in transfected cells; host or cells: ldlA[mSR-BI]; (CHO ldlA7 derivative lacking the LDL receptor)
T1 sequence (Q61009 1-509): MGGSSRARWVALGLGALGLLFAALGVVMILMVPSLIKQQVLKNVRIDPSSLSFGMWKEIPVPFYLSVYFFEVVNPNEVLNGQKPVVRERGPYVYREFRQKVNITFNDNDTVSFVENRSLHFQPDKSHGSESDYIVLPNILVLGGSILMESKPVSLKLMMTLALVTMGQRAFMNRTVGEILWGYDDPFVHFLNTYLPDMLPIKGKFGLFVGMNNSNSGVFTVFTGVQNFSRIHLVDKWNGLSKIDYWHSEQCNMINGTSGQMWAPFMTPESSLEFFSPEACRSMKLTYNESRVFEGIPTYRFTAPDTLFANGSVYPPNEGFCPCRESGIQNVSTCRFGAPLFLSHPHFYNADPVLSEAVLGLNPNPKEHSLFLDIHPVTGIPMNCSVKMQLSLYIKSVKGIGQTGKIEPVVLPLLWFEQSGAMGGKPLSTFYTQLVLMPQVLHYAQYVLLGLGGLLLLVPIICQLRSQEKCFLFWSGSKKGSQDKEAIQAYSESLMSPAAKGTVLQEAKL
Protocol: DiI-HDL Uptake Assay with Extended Washout (SA 5: AID No. 602154)
This is another modification of the primary assay where cells are pretreated with compound but no compound is present during a 4-hour washout period or the subsequent 3-hour DiI-HDL treatment period. […] Cells were treated with compound for 3 hours, then were washed four times with PBS, once with lipoprotein-free media (Ham's F12/0.5% fatty acid-free Bovine Serum Albumin [BSA]/25 mM HEPES pH 7.4), and then returned to the incubator with lipoprotein-free media for 4 hours. Media were then removed and cells were washed with PBS before fresh lipoprotein-free media (Ham's F12/0.5% fatty acid-free Bovine Serum Albumin [BSA]/25 mM HEPES pH 7.4) was added with […] DiI-HDL. Cells took up the DiI via SR-BI over 3 hours in the absence of compound. After significant uptake of the DiI, the cells became fluorescent. The level of fluorescence correlates with the amount of DiI uptake and can be measured with a standard plate reader. The uptake of lipid (represented by DiI) was inhibited by the compound BLT-1 or with an excess of HDL untreated with DiI.

[1] = Cell cytotoxicity assay (CellTiter-Glo); assay type: cell-based, Chinese hamster; settings: Chinese hamster, ldlA[mSR-BI] cells; after 24 hours of treatment
Protocol: It is possible that a compound will cause cells to decrease HDL-mediated DiI uptake due to nonspecific consequences of cellular toxicity, representing a second class of false positive hits. The cells were treated with compounds for 3 hours or 24 hours, and then cell viability was measured using the CellTiter-Glo Assay (Promega), a luciferase-based reagent that measures cellular ATP levels. The compounds were tested at different concentrations to determine IC50 values. […] Compounds that were active in the primary assay but toxic below 30 μM at 24 hours (but nontoxic at 3 hours) were still considered. […] Data were normalized against DMSO and the positive control (1 μM BLT-1) in Genedata Assay Analyzer.
All available dry powder samples of the remaining, non-quenching compounds were procured from commercial sources and purities were determined. The compounds obtained were then retested in the primary assay and in the cytotoxicity assays. We wanted to rule out any compounds that were cytotoxic, especially in the 3-hour time span of the primary DiI-HDL uptake assay. Therefore, compounds were tested in ldlA[mSR-BI]cells for cytotoxicity at 3 hours and 24 hours using the CellTiter-Glo assay (Promega) that measures cellular ATP as a marker of cell viability. […] Compounds were screened for inhibition of endocytosis using labeled transferrin, which is known to bind the transferrin receptor, enter cells by clathrin-mediated endocytosis, and move to endosomes before being recycled to the cell surface. The BLT compounds have also been tested for potential interference with endocytosis and show no such activity.

SR-BI [2] = molecular target: T2, SR-BI (Mus musculus, UniProt Q61009); assay: 125I-HDL binding assay; parameters: expressed in transfected cells
T2 sequence (Q61009 1-509): T1 sequence (Q61009 1-509)
Protocol: In a binding assay, ^125I-HDL binding to cells (4° C. or 37° C.) was measured for 2 h in the absence (total activity) or presence (nonspecific activity) of a 40-fold excess of unlabeled HDL. Stably transfected cells were seeded in the wells of 24-well plates (50,000 cells per well) in Ham's F12 medium containing 2 mM L-glutamine, 50 units/mL penicillin per 50 μg/mL streptomycin (medium A) supplemented with 5% (vol/vol) FBS and 0.25 mg/mL G418 (medium B) on day 0, and binding assays were performed on day 2. The cells were washed twice with prewarmed (37° C.) medium A plus 0.5% (wt/vol) BSA (medium C) prior to adding ^125I-HDL. For binding assays performed at 4° C., the assay plates were removed from the incubator, precooled for 30 min on ice in a cold room (4° C.), and then washed twice with cold (4° C.) medium C supplemented with 10 mM Hepes, pH 7.4, prior to adding ^125I-HDL. Specific binding or uptake is the difference between total and nonspecific activities. In assays using small molecule inhibitors (all incubations at 37° C.), immediately prior to incubation with ^125I-HDL, the cells were washed twice with medium A, preincubated with the small molecules for 1 h, and then incubated with radiolabeled lipoproteins as described above, all in medium C plus 0.5% (vol/vol) DMSO in the presence of the indicated concentrations of small molecules.

SR-BI [3] = molecular target: T2, SR-BI; assay: HDL binding assay (Alexa 488 HDL); assay type: cell-based; parameters: expressed in transfected cells; settings: Alexa-488 labeled HDL particles
Protocol: HDL binding was assessed using Alexa Fluor 488-labeled HDL particles. For this assay, the Alexa 488 dye was covalently bound to apolipoprotein components of the HDL particle via primary amines; thus, no transfer of the fluorophore to cell membranes occurs. In this manner, direct binding of the HDL particles to SR-BI can be measured. As a positive control, BLT-1, which is known to increase binding of HDL to SR-BI, was used at 1 μM (12). It is possible that a compound can reduce binding of HDL to the receptor, and this would lead to a decrease in signal. This assay is used to characterize the mechanism of action of a particular compound; therefore, any outcome in the assay is acceptable. Data were normalized against DMSO and the positive control (1 μM BLT-1) in Genedata Assay Analyzer.

Row | SMILES | pIC50 (murine SR-BI) | EC50 at 24 h [1] [nM] | pIC50 (SR-BI [2]; 37° C., 1 h preincubation with compound, read-out: IC50) | pIC50 (SR-BI [2]; range, read-out: measured range of IC50) | binding of HDL to SR-BI (SR-BI [3])
1 | CCCCCCC1CCCC1=NNC(N)=S (centres unmarked) [BLT-1, reference compound] | 9.22 |  |  |  | 
2 | COCC(=O)N1CCc2cc(-c3csc(NC(=O)c4cc(OC)cc(OC)c4)n3)ccc21 [Compound 137, 3,5-Dimethoxy-N-(4-(1-(2-methoxyacetyl)indolin-5-yl)thiazol-2-yl)benzamide] |  | > 35000 | 8.24 | 8.22 to 9.03 | increases binding of HDL to the receptor
